In patent US6525001B1, “Substituted pyrimidine and pyridine herbicides” (Mid-American Commercialization Corporation, priority 1997, dated 2003):

Assays:
Assay type in all cases: in vivo
Set-up in all cases: key: 0 is no effect; 10 is complete control
[1] = system: bamyardgrass (Echinochloa crus-galli); experiment: Test B flood test
Method in brief: (§1)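 Each value is a visual injury score relative to controls, with 10 meaning complete control and 0 no effect. Evaluation took place twelve to sixteen days after the 2-leaf-stage plants were treated and kept in the greenhouse.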

[2] = system: smallflower flatsedge (Cyperus difformis); experiment: Test B flood test
Method in brief: as §1

rice (Oryza sativa) = experiment: Test B flood test
Method in brief: as §1

[3] = system: duck salad (Heteranthera limosa); experiment: Test B flood test
Method in brief: as §1

[4] = system: cocklebur (Xanthium strumarium); experiment: Test B pre-/postemergence
Method in brief: (§2)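 Response scores run from 0, meaning no effect, to 10, meaning complete control, assigned by eye relative to controls twelve to sixteen days after spraying. Treatment was both preemergence on planted seed and postemergence on plants at the 1- to 4-leaf stage.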

[5] = system: sugar beet (Beta vulgaris); experiment: Test B pre-/postemergence
Method in brief: as §2

corn (Zea mays) = experiment: Test B pre-/postemergence
Method in brief: as §2

[6] = system: blackgrass (Alopecurus myosuroides); experiment: Test B pre-/postemergence
Method in brief: as §2

[7] = system: velvetleaf (Abutilon theophrasti); experiment: Test B pre-/postemergence
Method in brief: as §2

[8] = system: pigweed (Amaranthus retroflexus); experiment: Test B pre-/postemergence
Method in brief: as §2

wild oat (Avena fatua) = experiment: Test B pre-/postemergence
Method in brief: as §2

[9] = system: purple nutsedge (Cyperus rotundus); experiment: Test B pre-/postemergence
Method in brief: as §2

rape (Brassica napus) = experiment: Test B pre-/postemergence
Method in brief: as §2

soybean (Glycine max) = experiment: Test B pre-/postemergence
Method in brief: as §2

[10] = system: wheat (Triticum aestivum); experiment: Test B pre-/postemergence
Method in brief: as §2

[11] = system: giant foxtail (Setaria faberii); experiment: Test B pre-/postemergence
Method in brief: as §2

[12] = system: broadleaf signalgrass (Brachiaria decumbens); experiment: Test B pre-/postemergence
Method in brief: as §2

[13] = system: crabgrass (Digitaria sanguinalis); experiment: Test B pre-/postemergence
Method in brief: as §2

[14] = system: bedstraw (Galium aparine); experiment: Test B pre-/postemergence
Method in brief: as §2

[15] = system: momingglory (Ipomoea hederacea); experiment: Test B pre-/postemergence
Method in brief: as §2

[16] = Rate 62 g/ha, Postemergence (flood test)
[17] = Rate 125 g/ha, Postemergence section (flood test species)
[18] = Rate 250 g/ha, Postemergence (flood test species)
[19] = Preemergence, Rate 62 g/ha, scale of 0 to 10

O=C(c1cccc(C(F)(F)F)c1)c1ccnc(-n2ccc(C(F)(F)F)n2)n1 [Compound 70]
Barnyardgrass plant response rating [1, 16]: 0
Barnyardgrass plant response rating [1, 17]: 0
Plant response rating, Barnyardgrass [1, 18]: 0
S. Flatsedge plant response rating [2, 16]: 0
S. Flatsedge plant response rating [2, 17]: 0
Plant response rating, S. Flatsedge [2, 18]: 0
Rice plant response rating (rice (Oryza sativa); [16]): 0
Rice plant response rating (rice (Oryza sativa); [17]): 0
Plant response rating, Rice (rice (Oryza sativa); [18]): 0
Ducksalad plant response rating [3, 16]: 0
Ducksalad plant response rating [3, 17]: 0
Plant response rating, Ducksalad [3, 18]: 0
Plant response rating, Cocklebur [4, 19]: 0
Cocklebur plant response rating ([4]; Rate 62 g/ha, Postemergence): 1
Cocklebur plant response rating ([4]; Rate 125 g/ha, Postemergence): 2
Plant response rating, Cocklebur ([4]; Rate 125 g/ha, Preemergence): 0
Plant response rating, Cocklebur ([4]; Rate 250 g/ha, Postemergence): 2
Plant response rating, Cocklebur ([4]; Rate 250 g/ha, Preemergence): 0
Plant response rating, Sugarbeets [5, 19]: 0
Sugarbeets plant response rating ([5]; Rate 62 g/ha, Postemergence): 0
Sugarbeets plant response rating ([5]; Rate 125 g/ha, Postemergence): 1
Plant response rating, Sugarbeets ([5]; Rate 125 g/ha, Preemergence): 0
Plant response rating, Sugarbeets ([5]; Rate 250 g/ha, Postemergence): 2
Plant response rating, Sugarbeets ([5]; Rate 250 g/ha, Preemergence): 0
Plant response rating, Corn (corn (Zea mays); [19]): 0
Corn plant response rating (corn (Zea mays); Rate 62 g/ha, Postemergence): 1
Corn plant response rating (corn (Zea mays); Rate 125 g/ha, Postemergence): 1
Plant response rating, Corn (corn (Zea mays); Rate 125 g/ha, Preemergence): 0
Plant response rating, Corn (corn (Zea mays); Rate 250 g/ha, Postemergence): 2
Plant response rating, Corn (corn (Zea mays); Rate 250 g/ha, Preemergence): 0
Plant response rating, Blackgrass [6, 19]: 0
Blackgrass plant response rating ([6]; Rate 62 g/ha, Postemergence): 0
Blackgrass plant response rating ([6]; Rate 125 g/ha, Postemergence): 0
Plant response rating, Blackgrass ([6]; Rate 125 g/ha, Preemergence): 0
Plant response rating, Blackgrass ([6]; Rate 250 g/ha, Postemergence): 0
Plant response rating, Blackgrass ([6]; Rate 250 g/ha, Preemergence): 0
Plant response rating, Velvetleaf [7, 19]: 0
Velvetleaf plant response rating ([7]; Rate 62 g/ha, Postemergence): 0
Velvetleaf plant response rating ([7]; Rate 125 g/ha, Postemergence): 1
Plant response rating, Velvetleaf ([7]; Rate 125 g/ha, Preemergence): 0
Plant response rating, Velvetleaf ([7]; Rate 250 g/ha, Postemergence): 1
Plant response rating, Velvetleaf ([7]; Rate 250 g/ha, Preemergence): 0
Plant response rating, Redroot pigweed [8, 19]: 0
Redroot pigweed plant response rating ([8]; Rate 62 g/ha, Postemergence): 0
Redroot pigweed plant response rating ([8]; Rate 125 g/ha, Postemergence): 2
Plant response rating, Redroot pigweed ([8]; Rate 125 g/ha, Preemergence): 0
Plant response rating, Redroot pigweed ([8]; Rate 250 g/ha, Postemergence): 3
Plant response rating, Redroot pigweed ([8]; Rate 250 g/ha, Preemergence): 0
Plant response rating, Wild oats (wild oat (Avena fatua); [19]): 0
Wild oats plant response rating (wild oat (Avena fatua); Rate 62 g/ha, Postemergence): 0
Wild oats plant response rating (wild oat (Avena fatua); Rate 125 g/ha, Postemergence): 0
Plant response rating, Wild oats (wild oat (Avena fatua); Rate 125 g/ha, Preemergence): 0
Plant response rating, Wild oats (wild oat (Avena fatua); Rate 250 g/ha, Postemergence): 0
Plant response rating, Wild oats (wild oat (Avena fatua); Rate 250 g/ha, Preemergence): 0
Plant response rating, Nutsedge [9, 19]: 0
Nutsedge plant response rating ([9]; Rate 62 g/ha, Postemergence): 0
Nutsedge plant response rating ([9]; Rate 125 g/ha, Postemergence): 0
Plant response rating, Nutsedge ([9]; Rate 125 g/ha, Preemergence): 0
Plant response rating, Nutsedge ([9]; Rate 250 g/ha, Postemergence): 0
Plant response rating, Rape (rape (Brassica napus); [19]): 0
Rape plant response rating (rape (Brassica napus); Rate 62 g/ha, Postemergence): 0
Rape plant response rating (rape (Brassica napus); Rate 125 g/ha, Postemergence): 1
Plant response rating, Rape (rape (Brassica napus); Rate 125 g/ha, Preemergence): 0
Plant response rating, Rape (rape (Brassica napus); Rate 250 g/ha, Postemergence): 1
Plant response rating, Rape (rape (Brassica napus); Rate 250 g/ha, Preemergence): 0
Plant response rating, Soybean (soybean (Glycine max); [19]): 0
Soybean plant response rating (soybean (Glycine max); Rate 62 g/ha, Postemergence): 1
Soybean plant response rating (soybean (Glycine max); Rate 125 g/ha, Postemergence): 2
Plant response rating, Soybean (soybean (Glycine max); Rate 125 g/ha, Preemergence): 0
Plant response rating, Soybean (soybean (Glycine max); Rate 250 g/ha, Postemergence): 3
Plant response rating, Soybean (soybean (Glycine max); Rate 250 g/ha, Preemergence): 0
Plant response rating, Wheat [10, 19]: 0
Wheat plant response rating ([10]; Rate 62 g/ha, Postemergence): 0
Wheat plant response rating ([10]; Rate 125 g/ha, Postemergence): 0
Plant response rating, Wheat ([10]; Rate 125 g/ha, Preemergence): 0
Plant response rating, Wheat ([10]; Rate 250 g/ha, Postemergence): 0
Plant response rating, Wheat ([10]; Rate 250 g/ha, Preemergence): 0
Plant response rating, Giant foxtail [11, 19]: 0
Giant foxtail plant response rating ([11]; Rate 62 g/ha, Postemergence): 0
Giant foxtail plant response rating ([11]; Rate 125 g/ha, Postemergence): 0
Plant response rating, Giant foxtail ([11]; Rate 125 g/ha, Preemergence): 0
Plant response rating, Giant foxtail ([11]; Rate 250 g/ha, Postemergence): 0
Plant response rating, Giant foxtail ([11]; Rate 250 g/ha, Preemergence): 0
B. signalgrass plant response rating ([12]; Rate 62 g/ha, Postemergence): 0
B. signalgrass plant response rating ([12]; Rate 62 g/ha, Preemergence): 0
B. signalgrass plant response rating ([12]; Rate 125 g/ha, Postemergence): 0
Plant response rating, B. signalgrass ([12]; Rate 125 g/ha, Preemergence): 0
Plant response rating, B. signalgrass ([12]; Rate 250 g/ha, Postemergence): 1
Plant response rating, B. signalgrass ([12]; Rate 250 g/ha, Preemergence): 0
Plant response rating, Crabgrass [13, 19]: 0
Crabgrass plant response rating ([13]; Rate 62 g/ha, Postemergence): 0
Crabgrass plant response rating ([13]; Rate 125 g/ha, Postemergence): 1
Plant response rating, Crabgrass ([13]; Rate 125 g/ha, Preemergence): 0
Plant response rating, Crabgrass ([13]; Rate 250 g/ha, Postemergence): 1
Plant response rating, Crabgrass ([13]; Rate 250 g/ha, Preemergence): 0
Plant response rating, Bedstraw [14, 19]: 0
Bedstraw plant response rating ([14]; Rate 62 g/ha, Postemergence): 1
Bedstraw plant response rating ([14]; Rate 125 g/ha, Postemergence): 1
Plant response rating, Bedstraw ([14]; Rate 125 g/ha, Preemergence): 0
Plant response rating, Bedstraw ([14]; Rate 250 g/ha, Postemergence): 1
Plant response rating, Bedstraw ([14]; Rate 250 g/ha, Preemergence): 0
Plant response rating, Morningglory [15, 19]: 0
Morningglory plant response rating ([15]; Rate 62 g/ha, Postemergence): 1
Morningglory plant response rating ([15]; Rate 125 g/ha, Postemergence): 1
Plant response rating, Morningglory ([15]; Rate 125 g/ha, Preemergence): 0
Plant response rating, Morningglory ([15]; Rate 250 g/ha, Postemergence): 2
Plant response rating, Morningglory ([15]; Rate 250 g/ha, Preemergence): 0
